From PubChem BioAssay AID720607 (Broad Institute, 2013)
Results filed as inconclusive are left out.

Tested on: CCRF-CEM viability, CellTiter-Glo ATP luminescence, 8-48 h
Test: cytotoxicity in CCRF-CEM lymphoblastic leukemia cells – cell-based, CellTiter-Glo ATP luminescence, 8/24/48 h, dry powder, HRAS target identification, dose response (AID 720607)

`Cc1onc(C(=O)N2CCN(C(c3ccc(Cl)cc3)c3ccc(Cl)cc3)CC2)c1[N+](=O)[O-]` was tested, and the AC50 (measured here: 8 h treatment) was 0.553 µM, the AC50 (measured here: 24 h treatment) was 0.0689 µM and the AC50 (measured here: 48 h treatment) was 0.0788 µM.
In the case of `COc1ccc(N(C(=O)CCl)C(C(=O)NCCc2ccccc2)c2cccs2)cc1Cl` (stereo not given), the AC50 (measured here: 8 h treatment) is reported as 0.321 µM, the AC50 (measured here: 24 h treatment) is reported as 0.039 µM and the AC50 (measured here: 48 h treatment) is reported as 0.0387 µM.
`C#CCCCC(=O)NCCOCCOCCOc1ccc(N(C(=O)CCl)C(C(=O)NCCc2ccccc2)c2cccs2)cc1Cl` (stereo not given) gave an AC50 (measured here: 8 h treatment) of 2.98 µM, an AC50 (measured here: 24 h treatment) of 0.588 µM and an AC50 (measured here: 48 h treatment) of 0.565 µM.
In the case of `CC(C)(C)OC(=O)NCCOCCOCCOc1ccc(N(C(=O)CCl)C(C(=O)NCCc2ccccc2)c2cccs2)cc1Cl` (stereo not given), the AC50 (measured here: 8 h treatment) is reported as 0.454 µM, the AC50 (measured here: 24 h treatment) is reported as 0.0344 µM and the AC50 (measured here: 48 h treatment) is reported as 0.0415 µM.
For `COC(=O)c1ccc([C@@H]2c3[nH]c4ccccc4c3C[C@@H](C(=O)OC)N2C(=O)CCl)cc1`, the AC50 (measured here: 8 h treatment) was 0.272 µM, the AC50 (measured here: 24 h treatment) was 0.0199 µM and the AC50 (measured here: 48 h treatment) was 0.0234 µM.
